This experiment concerns the target SMYD2 (Homo sapiens, UniProt Q9NRG4). Kind of experiment: Scintillation Proximity Assay (SPA) for detection of SMYD2 enzymatic inhibition. The class given is biochemical. More on the design: The SMYD2 full length enzyme was produced in-house by expression (with an N-terminal 6× His tag) in E. coli; 6xHis (N); made in house; host or cells: E. coli. To be noted: SMYD2 full length enzyme, p53 Peptide substrate 1.0 μM, 3H-SAM 60 nM; read-out: IC50 [mol/l] (SPA Assay). The text has this:
1.1 Scintillation Proximity Assay (SPA) for Detection of SMYD2 Enzymatic Inhibition
SMYD2 inhibitory activities of the compounds described in the present invention were quantified using a scintillation proximity assay (SPA) which measures methylation by the enzyme of the synthetic, biotinylated peptide Btn-Ahx-[…]—Amid×TFA (Biosyntan) derived from p53 and referred to from here on as “p53 Peptide”. The SMYD2 full length enzyme was produced in-house by expression (with an N-terminal 6× His tag) in E. coli and purification by affinity chromatography on a Ni-NTA Sepharose column followed by a size exclusion chromatography step on a Superdex 200 16/60 column (GE Healthcare).
In a typical assay 11 different concentrations of each compound (0.1 nM, 0.33 nM, 1.1 nM, 3.8 nM, 13 nM, 44 nM, 0.15 μM, 0.51 μM, 1.7 μM, 5.9 μM and 20 μM) were tested in duplicate within the same microtiter plate. To this end, 100-fold concentrated compound solutions (in DMSO) were previously prepared by serial dilution (1:3.4) of 2 mM stocks in a clear low volume 384-well source microliter plate (Greiner Bio-One), from which 50 nl of compound solutions were transferred into a white low volume test microtiter plate from the same supplier. Subsequently, 2.5 μl SMYD2 in aqueous assay buffer [50 mM Tris/HCl pH 9.0 (AppliChem), 1 mM dithiothreitol (DTT, Sigma), 0.01% (w/v) bovine serum albumine (BSA, Sigma), 0.0022% (v/v) Pluronic (Sigma)] were added to the compounds in the test plate to a final enzyme concentration of —typically—3 nM (this parameter was adjusted depending on the activity of the enzyme lot in order to be within the linear dynamic range of the assay). The samples were then incubated for 15 min at 22° C. to allow pre-equilibration of the putative enzyme-inhibitor complexes before the start of the methylation reaction, which was initiated by the addition of 2.5 μl 2-fold concentrated solution (in assay buffer) of titriated S-Adenosyl-L-Methionine (3H-SAM, Perkin Elmer, final concentration: 60 nM) and p53 Peptide substrate (final concentration: 1.0 μM). The resulting mixture (5 μl final volume) was shortly centrifuged (2 min., 1500 rpm) and incubated at 22° C. during 30 min. Thereupon the reaction was stopped by adding 3 μl of Streptavidin PS SPA imaging beads (Perkin Elmer, final concentration of 3.12 μg/μl) and “cold” SAM (AK Scientific, 25 μM final concentration) for non-specific binding reduction. Plates containing the stopped reaction were sealed with transparent adhesive foil (Perkin Elmer), centrifuged (2 min., 1500 rpm), and further incubated for —at least—1 h at RT (or overnight at 4° C.) in order to allow the SPA signals to develop. Subsequently, the amount of product was evaluated by measuring the energy transfer from the β-particles emitted by the 3H-labeled substrate to the Europium scintillator co-polymerized in the polystyrene matrix of the PS imaging beads, using the standard settings for this purpose of a Viewlux (Perkin-Elmer) CCD plate imaging device (emission filter 613/55 (IFP). The resulting scintillation counts were taken as indicator for the amount of methylated peptide per well. The data were normalised using two sets of control wells (typically 16 each) for high−(=enzyme reaction with DMSO instead of test compound=0% =Minimum inhibition) and low−(=all assay components without enzyme=100% =Maximum inhibition) SMYD2 activity. IC50 values were calculated by fitting the normalized inhibition data to a 4-parameter logistic equation using the “Screener” analysis software from Genedata.

SMYD2, sequence (Q9NRG4 whole entry): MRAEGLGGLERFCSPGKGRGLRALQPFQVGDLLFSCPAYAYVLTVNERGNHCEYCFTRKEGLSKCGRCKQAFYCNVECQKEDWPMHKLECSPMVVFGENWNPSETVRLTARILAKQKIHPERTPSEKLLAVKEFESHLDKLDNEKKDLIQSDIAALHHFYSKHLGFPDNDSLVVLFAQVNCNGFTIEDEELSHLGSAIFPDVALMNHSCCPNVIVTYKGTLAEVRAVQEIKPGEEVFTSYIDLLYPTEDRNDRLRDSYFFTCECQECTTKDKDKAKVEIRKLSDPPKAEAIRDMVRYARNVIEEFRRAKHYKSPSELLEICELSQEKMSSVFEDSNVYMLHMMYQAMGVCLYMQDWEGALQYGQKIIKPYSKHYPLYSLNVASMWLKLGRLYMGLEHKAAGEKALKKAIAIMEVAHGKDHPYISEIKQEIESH

As to `CCN(C(=O)[C@H]1CCCN1)C1CN(/C(=N\C#N)Nc2cc(C(F)(F)F)ccc2OC(F)(F)F)N=C1c1ccc(Cl)c(Cl)c1` (single isomer, unassigned) [Example 30.1, N-[1-{N′-Cyano-N-[2-(trifluoromethoxy)-5-(trifluoromethyl)phenyl]carbamimidoyl}-3-(3,4-dichlorophenyl)-4,5-dihydro-1H-pyrazol-4-yl]-N-ethyl-D-prolinamide], the IC50 amounted to 54.5 nM. The figure for `CCN(C(=O)[C@@H]1CCC[C@@H]1N)C1CN(/C(=N\C#N)Nc2cccc(OC(F)F)c2)N=C1c1ccc(Cl)c(Cl)c1` (relative stereo) [Example 42, Rel-(1R,2S)-2-amino-N-[1-{N′-cyano-N-[3-(difluoromethoxy)phenyl]carbamimidoyl}-3-(3,4-dichlorophenyl)-4,5-dihydro-1H-pyrazol-4-yl]-N-ethylcyclopentanecarboxamide] is 194 nM. Take `CCN(C(=O)[C@H]1CCCN1)C1CN(/C(=N\C#N)Nc2cccc(OCC(F)(F)F)c2)N=C1c1ccc(Cl)c(Cl)c1` (mixture of isomers) [Example 35, N-[1-{N′-Cyano-N-[3-(2,2,2-trifluorelethoxy)phenyl]carbamimidayl}-3-(3,4-dichlorophenyl)-4,5-dihydro-1H-pyrazol-4-yl]-N-ethyl-D-prolinamide]: the IC50 was determined as 505 nM. The figure for `CCN(C(=O)[C@H]1CCCN1)C1CN(/C(=N\C#N)Nc2ccc(F)c(OC(F)F)c2)N=C1c1ccc(Cl)c(Cl)c1` (mixture of isomers) [Example 15, N-[1-{N′-Cyano-N-[3-(difluoromethoxy)-4-fluorophenyl]carbamimidoyl}-3-(3,4-dichlorophenyl)-4,5-dihydro-1H-pyrazol-4-yl]-N-ethyl-D-prolinamide] is 24.4 nM; for `N#C/N=C(/Nc1cccc(OC(F)F)c1)N1CC(NC(=O)C2(N)CCC2)C(c2ccc(Cl)c(Cl)c2)=N1` (racemic) [Example 9, rac-1-Amino-N-[1-{N′-cyano-N-[3-(difluoromethoxy)phenyl]carbamimidoyl}-3-(3,4-dichlorophenyl)-4,5-dihydro-1H-pyrazol-4-yl]cyclobutanecarboxamide] it is 603 nM; for `CCN(C(=O)[C@H]1CCCN1)C1CN(/C(=N\C#N)Nc2cc(OC(F)(F)F)ccc2OC)N=C1c1ccc(Cl)c(Cl)c1` (mixture of isomers) [Example 19, N-[1-{N′-Cyano-N-[2-methoxy-5-(trifluoromethoxy)phenyl]carbamimidayl}-3-(3,4-dichlorophenyl)-4,5-dihydro-1H-pyrazol-4-yl]-N-ethyl-D-prolinamide] it is 17.2 nM. The value for `CCN(C(=O)[C@H]1CCCN1)C1CN(/C(=N\C#N)Nc2cccc(CC(F)(F)F)c2)N=C1c1ccc(Cl)c(Cl)c1` (single isomer, unassigned) [Example 31.1, N-[1-{N′-Cyano-N-[3-(2,2,2-trifluoroethyl)phenyl]carbamimidoyl}-3-(3,4-dichlorophenyl)-4,5-dihydro-1H-pyrazol-4-yl]-N-ethyl-D-prolinamide] was 33.6 nM; that for `CCN(C(=O)[C@H]1CCCN1)C1CN(/C(=N\C#N)Nc2cc(C(F)(F)F)ccc2OC(F)(F)F)N=C1c1ccc(Cl)c(Cl)c1` (single isomer, unassigned) [Example 30.2, N-[1-{N′-Cyano-N-[2-(trifluoromethoxy)-5-(trifluoromethyl)phenyl]carbamimidoyl}-3-(3,4-dichlorophenyl)-4,5-dihydro-1H-pyrazol-4-yl]-N-ethyl-D-prolinamide] was 1540 nM; that for `CCN(C(=O)[C@H]1CCN1)C1CN(/C(=N\C#N)Nc2cc(F)cc(OC(F)(F)F)c2)N=C1c1ccc(Cl)c(Cl)c1` (mixture of isomers) [Example 23, (2R)-N-[1-{N′-Cyano-N-[3-fluoro-5-(trifluoromethoxy)phenyl]carbamimidoyl}-3-(3,4-dichlorophenyl)-4,5-dihydro-1H-pyrazol-4-yl]-N-ethylazetidine-2-carboxamide] was 43.2 nM. The figure for `CCN(C(=O)[C@H]1CCCN1)C1CN(/C(=N\C#N)Nc2cccc(OC(F)(F)F)c2)N=C1c1ccc(Cl)c(Cl)c1` (mixture of isomers) [Example 17, N-[1-{N′-Cyano-N-[3-(trifluoromethoxy)phenyl]carbamimidoyl}-3-(3,4-dichlorophenyl)-4,5-dihydro-1H-pyrazol-4-yl]-N-ethyl-D-prolinamide] is 116 nM; for `CCN(C(=O)[C@@H]1CCCC[C@@H]1N)C1CN(/C(=N\C#N)Nc2cccc(OC(F)F)c2)N=C1c1ccc(Cl)c(Cl)c1` (mixture of isomers) [Example 43, (1R,2S)-2-amino-N-[1-{N′-cyano-N-[3-(difluoromethoxy)phenyl]carbamimidoyl}-3-(3,4-dichlorophenyl)-4,5-dihydro-1H-pyrazol-4-yl]-N-ethylcyclohexanecarboxamide] it is 432 nM. Consider `CCN(C(=O)c1cccc(=O)[nH]1)C1CN(/C(=N\C#N)Nc2cccc(OC(F)F)c2)N=C1c1ccc(Cl)c(Cl)c1` (single isomer, unassigned) [Example 5.2, N-[1-{N′-Cyano-N-[3-(difluoromethoxy)phenyl]carbamimidoyl}-3-(3,4-dichlorophenyl)-4,5-dihydro-1H-pyrazol-4-yl]-N-ethyl-6-oxo-1,6-dihydropyridine-2-carboxamide], for which the IC50 was greater than 20000 nM. The figure for `CCN(C(=O)[C@H]1CCCN1)C1CN(/C(=N\C#N)Nc2cccc(OC(F)F)c2)N=C1c1ccc(Cl)c(C)c1` (mixture of isomers) [Example 37, N-[3-(4-Chloro-3-methylphenyl)-1-{N′-cyano-N-[3-(difluoromethoxy)phenyl]carbamimidoyl}-4,5-dihydro-1H-pyrazol-4-yl]-N-ethyl-D-prolinamide] is 18.7 nM. For the molecule `CCN(C(=O)[C@H]1C[C@@H](F)CN1)C1CN(/C(=N\C#N)Nc2cccc(OC(F)F)c2)N=C1c1ccc(Cl)c(C)c1` (single isomer, unassigned) [Example 38.2], the IC50 is roughly 20000 nM.

With `CCN(C(=O)[C@H]1CCCN1)C1CN(/C(=N\C#N)Nc2cccc(OC(F)(F)F)c2)N=C1c1ccc(Cl)c(Cl)c1` (single isomer, unassigned) [Example 17.2, N-[1-{N′-Cyano-N-[3-(trifluoromethoxy)phenyl]carbamimidoyl}-3-(3,4-dichlorophenyl)-4,5-dihydro-1H-pyrazol-4-yl]-N-ethyl-D-prolinamide], the IC50 worked out at 1380 nM. As to `CCN(C(=O)[C@H]1C[C@@H](O)CN1)C1CN(/C(=N\C#N)Nc2cccc(OC(F)F)c2)N=C1c1ccc(Cl)c(Cl)c1` (single isomer, unassigned) [Example 3.2], the IC50 amounted to 2240 nM.

Source of the values: patent US20180099937A1, “NOVEL ARYL-CYANOGUANIDINE COMPOUNDS” (Bayer Pharma Aktiengesellschaft, priority 2015, published 2018).
